Assay results from US10143696B2, “Methods and compositions for decreasing gastric emptying” (priority 2015, dated 2018).
Read-outs that look alike come from different tables or passages of the source.

Key:
Sprague-Dawley rats [1] = experiment: Repeated oral administration: gastric emptying, food intake, body weight; type: in vivo, rat
Description: Rats were fasted overnight (16-18 hours) with free access to water. The next morning, compound was administered and animals were individually housed in bedding-free cages with pre-weighed food available ad libitum and access to water for 2 hours. The water and food were then removed and the remaining food was re-weighed. Gastric emptying of the ingested meal was assessed 4 hours later. Animals were euthanized by CO2 inhalation followed by thoracotomy. The abdominal cavity was opened, the pylorus and cardia were clamped and the stomach was removed. The excised stomach was weighed and then opened along the greater curvature, rinsed with tap water, lightly dried and re-weighed. The amount of food in the stomach (grams) was estimated based on the difference between the total weight of the stomach plus its contents and the weight of the stomach after the contents were removed. The meal ingested (food intake) was determined by the difference between pre- and post-feeding weight at the end of the 2 hour period. Gastric emptying during the 4 hour experiment is represented as: Gastric emptying=[1−(gastric content/food intake)]×100. Gastric Secretion
Male, Sprague-Dawley rats (weighing between 240-283 g each and 5-6 rats per test group) were orally dosed with 3 mg/kg, 10 mg/kg or 30 mg/kg of Compound A with a 0.5% MC vehicle or with a 0.5% MC vehicle alone once a day for five days and were then fasted overnight. The rats were then dosed again on the sixth day and placed in individual, bedding-free cages and allowed ad libitium access to pre-weighed food and water for two hours. The food and water were then removed and the food was reweighed. Data were analyzed using a one-way ANOVA followed by a Dunnett's Multiple Comparison Test, where *P<0.05 as compared to the appropriate vehicle. Data are represented as the means+S.E.M. % Gastric Emptying in 4 hours=(1−(gastric content/food intake))×100.

Sprague-Dawley rats [2] = experiment: Gastric secretion volume and pH in fasted rats; type: in vivo, rat
Description: Gastric section and acidity was assessed by direct measurement in fasted animals (Melo et al. (2006). “Effect of acid secretion blockade on acute gastric mucosal lesions induced by Tityus serrulatus scorpion toxin in anaesthetized rats.” Toxicon 48(5): 543-549). Rats were fasted with free access to water for 24 hours on wire inserts without bedding. The next day, all rats were dosed orally with 0.5% MC (5 ml/kg) to remove any residual stomach contents and test compound or vehicle was administered. The animals were water deprived for 3 hours, anesthetized with isoflurane (5% in O2), and a laparotomy was conducted followed by tight ligation of the pylorus and cardia. After ligation, the stomach was removed and the rat was immediately euthanized by decapitation. The stomach was opened along the greater curvature and gastric fluid collected into Eppendorf tubes and centrifuged (5 min at 10×1000 g). pH was determined by pipetting gastric fluid directly onto an indicator stick (Whatman, Panpeha Plus, pH0-14). Data are represented as the mean volume and mean pH.
Male, Sprague-Dawley rats (weighing between 254-270 g each and 6 rats per test group) were fasted overnight (24 hours) on wire inserts without bedding. The rats were first orally dosed with 0.5% MC vehicle and then subcutaneously injected with 3 mg/kg or 10 mg/kg of Compound A with a 25% HPBCD vehicle or with a 25% HPBCD vehicle alone. The test animals were water deprived for 3 hours and then anesthetized with isoflurane and the pylorus and cardia were tightly ligated. The stomachs were then removed and the rats were euthanized. The gastric fluid was removed from the stomachs and collected in eppendorf tubes by cutting along the greatest curvature and spun in a centrifuge. Gastric secretion data were analyzed by a one-way ANOVA using a Bonferroni Multiple Comparison test, where *P<0.05 and **P<0.01 as compared to the appropriate vehicle. Data are represented as the means+S.E.M. PH data were analyzed by a one-way ANOVA using Dunnett's Multiple Comparison Test. Data are represented as the means+S.E.M.
This Example measured volume and pH of gastric secretion three hours post subcutaneous administration of 10 mg/kg of Compound A. The animals were water deprived during this time.

Sprague-Dawley rats [3] = experiment: Gastrointestinal transit, charcoal meal assay; type: in vivo, rat
Description: Small intestinal transit was measured based on a known method which involved the oral administration of a charcoal meal (Gmerek et al. (1986). “Independent central and peripheral mediation of morphine-induced inhibition of gastrointestinal transit in rats.” J Pharmacol Exp Ther 236(1): 8-13). Rats were fasted with free access to water for 18 hours. Test compound or vehicle was dosed prior to oral administration of a charcoal slurry containing activated charcoal, flour and water in a ratio of 1:2:7.5 (10 ml/kg orally). One hour after receiving the charcoal slurry, rats were euthanized by CO2 asphyxiation. The stomach and GI tract was excised from each animal. Whole stomach weight was recorded and the length of the small intestine (cm) (stomach to cecum) and the distance (cm) to the leading edge of charcoal was measured. Small intestinal transit data are expressed as a percentage of the distance traveled (i.e. % small intestinal transit=(distance charcoal traveled)/(total length of small intestine (stomach to cecum)×100). Pretreatment times were determined on the basis of pharmacokinetic data (not shown) and were as follows: Compound A, 60 minutes, Compound C, 60 minutes; carbamazepine, 60 minutes. Morphine was administered with a pretreatment time of 30 mins based on previous experience.

cynomolgus monkeys = type: in vivo
Description: Studies in cynomolgous monkeys were conducted by Battelle (Columbus, Ohio). Eleven monkeys, seven males and four females that had been previously received, quarantined, and acclimated and were naïve (females), or had not been used on other studies for a minimum of 6 months (males), were utilized. Prior to use on study, monkeys were acclimated to chair restraint for up to 2 hours. Chair restraint was used to facilitate dose administration and blood collection. Animals were individually housed in stainless steel cages. Monkeys were offered a certified diet twice daily and had access to fresh water ad libitum. The animals also were supplemented with fresh fruits and/or fresh vegetables. Monkeys were fasted overnight prior to dose administration.
Observations for moribundity and mortality were performed on all animals twice daily throughout the duration of the study. Cage-side clinical observations were recorded for all animals prior to dose administration and at the times of blood collection.
As such, a pharmacokinetic and observational study was conducted in cynomologous monkeys (FIG. 16). Plasma concentrations of Compound A were measured following a single oral dose of 10, 50 and 100 mg/kg up to 24 hours post-dosing (FIGS. 16A, B and C).

[4] = 30 mg/kg p.o. once a day, over 5 days
[5] = p.o. 3, 10, 30 mg/kg once a day for 6 days, 0.5% MC
[6] = Compound A 10 mg/kg s.c. alone, three hours post administration (Example 17)
[7] = s.c. 3, 10 mg/kg, 25% HPBCD, 3 hours (Example 10)
[8] = individual monkey presenting the highest plasma levels
[9] = monkey, p.o. 100 mg/kg, animals affected/animals dosed, 100 mg/kg

C[C@H](Nc1cc(C(N)=O)nc(-c2ccc(Oc3ccc(OC(F)(F)F)cc3)cc2)n1)C(N)=O [Compound A]
body weight lost as a percentage of total body weight (Sprague-Dawley rats [1]; [4]): 2.6%
mean body weight loss (Sprague-Dawley rats [1]; [4]): 6.3 g
body weight (Sprague-Dawley rats [1]; measured on day 5, p.o. 3, 10, 30 mg/kg once a day): decreased for all Compound A dosage levels
% Gastric Emptying in 4 hours (Sprague-Dawley rats [1]; [5]): inhibited the percentage of gastric emptying
food intake (Sprague-Dawley rats [1]; [5]): decrease in food intake
pH of gastric secretion (Sprague-Dawley rats [2]; [6]): increase in gastric secretion and pH
volume of gastric secretion (Sprague-Dawley rats [2]; [6]): increase in gastric secretion and pH
volume and pH of gastric secretion (Sprague-Dawley rats [2]; lansoprazole 30 mg/kg p.o. 30 minutes prior to Compound A 10 mg/kg s.c. (Example 17)): not different from that achieved by Compound A alone
pH of gastric secretion (Sprague-Dawley rats [2]; [7]): remains unaffected
volume of gastric secretion (Sprague-Dawley rats [2]; [7]): increases with increasing dosages of Compound A
dosage level with significant effect on stomach weight (Sprague-Dawley rats [3]; charcoal meal assay): 100 mg/kg
stomach weight (Sprague-Dawley rats [3]; charcoal meal assay, vs vehicle treated animals): statistically significant increase in stomach weight
gastrointestinal transit (% small intestinal transit) (Sprague-Dawley rats [3]; charcoal meal, 60 minutes pretreatment, vs vehicle): No statistically significant decrease in gastrointestinal transit
food intake after 24 hrs post-dosing (cynomolgus monkeys; [8]): reduced food intake for at least two additional days post dosing
food intake and feces production up to 24 hrs post-dosing (cynomolgus monkeys; [8]): zero food intake and zero feces production
food consumption or feces production (cynomolgus monkeys; monkey, p.o. 10 mg/kg): no treatment related-effect was discernable
Clinical Observations (frequency): Diarrhea (cynomolgus monkeys; monkey, p.o. 10 mg/kg, animals affected/animals dosed, 10 mg/kg): 2 out of the 3 and (2/3)
Clinical Observations (frequency): Distended/Bloated Abdomen (cynomolgus monkeys; monkey, p.o. 50 mg/kg, animals affected/animals dosed, 50 mg/kg): 2 out of 4 and Abdomen (2/4)
Clinical Observations (frequency): Distended/Bloated Abdomen (cynomolgus monkeys; [9]): 2 out of 4 and Abdomen (2/4)
Clinical Observations (frequency): Low Food Consumption (cynomolgus monkeys; [9]): 2 out of the 4 and Consumption (2/4)
